In assay [1] the test system is excreted amount of phenol red in trachea of mice. Briefly: Expectorant effect in mice (phenol red excretion in trachea). It counts as in vivo, Balb/c mice. As to the method:
80 Balb/c male mice (about 8 weeks old) were randomized into 8 groups based on body weight (10 mice/group). The groups were respectively blank control group and positive control group—ammonium chloride group (1 g/kg), high, medium and low dose groups of the traditional Chinese medicine composition produced by Comparative Example 1 (0.35, 1.05, 2.10 ml/kg), high, medium and low dose groups of the medicament produced by Example 1 (0.35, 1.05, 2.10 ml/kg). The blank control group was administered equal volume of deionized water. The administration volume was always 2.10 ml/kg. Gavage was performed for consecutive 30 days, once/day. 30 min before modeling, the positive control group was administered. […] A certain amount of phenol red was weighted with a balance, and 5% sodium bicarbonate solution was added to formulate 1 ml solution containing […] of phenol red, which was diluted sequentially to 1 mL solution containing 0.1, 0.3, 0.7, 1.0, 3.0, 5.0, 10.0 μg of phenol red was measured for absorbance. A standard curve was made by taking the dose of phenol red as abscissa, absorbance as ordinate. The amount of phenol red was calculated from the standard curve of phenol red according to the measured OD value. […]

Assay [2] relates to carrageenan induced toe swelling of mice. Nature of the assay: Acute inflammatory model: carrageenan-induced paw edema. It counts as in vivo, Balb/c mice. The note with it: 10 mg/kg, blank control = 100. How it is done: 90 Balb/c male mice (about 8 weeks old) were randomized into 9 groups based on body weight (10 mice/group). The groups were respectively blank control group, model group and positive control group—dexamethasone group, high, medium and low dose groups of the traditional Chinese medicine composition produced by Comparative Example 1 (0.35, 1.05, 2.10 ml/kg), high, medium and low dose groups of the medicament produced by Example 1 (0.35, 1.05, 2.10 ml/kg). Animals from Comparative Example group and Examples of the present application groups were intragastrically administrated 30 days before modeling, once a day. Blank control group and model control group were administered equal volume of distilled water. The administration volume was always 2.10 ml/kg. Dexamethasone group was administered at 10 mg/kg, and was intragastrically administrated 10 days before modeling. The model control group was intragastrically administrated equal volume of distilled water for consecutive 30 days, once a day. On day 30, 1 hour after the test samples were administered, a line was drawn using a marker pen along the external malleolus of right rear paw of rats as the marker. A toe volume measuring instrument was used to measure the volumes of right rear toes of each groups of rats (as the toe volume at 0 hour), and then the right rear toes of rats were subcutaneously injected 1% carrageenan (0.05 mL/rat). The thickness of rat paws at 1, 2, 4 hours were measured respectively. Each animal was measured for 3 times at the same site, and the results were averaged. The swelling value is defined as the difference between the toe volumes measured at different times and the toe volumes before the action of proinflammatory agent, which is used to calculate the toe volume swelling rates at each time period.
[Paw edema (mm)]=[footpad thickness of carrageenan (mm)−footpad thickness of PBS (mm)].
In general terms: Carrageenan injected into the paw causes an acute inflammation.

The test system of assay [3] is capsaicin induced rats' pharyngitis. Nature of the assay: Effect on acute pharyngitis (capsaicin induced pharyngitis), EB dye exudation at pharyngeal mucosa. The note with it: 1 mg/kg intragastric, 10 days before modeling. It counts as in vivo, SD rats.
Experimental: Experimental method: 90 male SD rats (˜8 weeks age) were randomized into 9 groups (10 rats/group). […] Animals from Comparative Example groups and Example of the present application groups were intragastrically administrated 30 days before modeling, once a day. Blank control group and model control group were administered equal volume of distilled water. […] The positive control group was administered at 1 mg/kg, and was intragastrically administrated 10 days before modeling. 24 hours after the last administration, the rats were anesthetized, injected with EB dye through the side tail vein. Ten minutes later, capsaicin was smeared to velopharyngeal tissue mucosa of rats, wherein each point was smeared for 3 times/5 seconds, with a total of 60 minutes. Blank control group was not subjected to stimulation.
After the end of the experiment, all rats were sacrificed by cervical dislocation, and were subjected to quantitative determination of EB dye exudation at pharyngeal mucosa respectively, in order to evaluate the improvement situation of pharyngeal mucosa inflammation of rats induced by capsaicin.
The test system of a further assay is mouse tampon granuloma. Briefly: Chronic inflammatory model: cotton pellet (tampon) induced granuloma. It counts as in vivo, Balb/c mice. The note with it: mice, 10 mg/kg. As to the method:
80 Balb/c male mice (about 8 weeks old) were randomized into 8 groups based on body weight (10 mice/group). The groups were respectively model group and positive control group—dexamethasone group, high, medium and low dose groups of the traditional Chinese medicine composition produced by Comparative Example 1 (0.35, 1.05, 2.10 ml/kg), high, medium and low dose groups of the medicament produced by Example 1 (0.35, 1.05, 2.10 ml/kg). Animals from Comparative Example group and Examples of the present application groups were intragastrically administrated 30 days before modeling, once a day. Model control group was administered equal volume of deionized water. The administration volume was always 2.10 ml/kg. Dexamethasone group was administered at 10 mg/kg, and was intragastrically administrated 10 days before modeling. After the last administration, the mice were anesthetized by intraperitoneal injection of 3% pentobarbital sodium at a dose of 60 mg/kg body weight. After anesthesia, the animals were fixed in supine position, and the bilateral inguinal clothing hairs of the rats were removed with a hair removal device. After iodophor disinfection, the rats were subjected to skin incision for about 2 cm at both sides of the groin, and a sterilized tampon was implanted at both sides of the groin of the rats. […]

Turning to `Cl.N` [ammonium chloride], the “excreted amount of phenol red, result in words” value in assay [1] (compared with control group) is on record as “significantly (P<0.05) increase the excreted amount of phenol red”. Further, the “excreted amount of phenol red” value in assay [1] (mice, 1 g/kg, 30 min before modeling) was 7.92 ± 0.88 µg/mL.

Turning to `C[C@@H]1C[C@H]2[C@@H]3CCC4=CC(=O)C=C[C@]4(C)[C@@]3(F)[C@@H](O)C[C@]2(C)[C@@]1(O)C(=O)CO` [dexamethasone, Dexamethasone], the “Swelling degrees of toes at different times after inflammation, 1 h” value in assay [2] (1 h) is 177.23. For the same compound, the “Swelling degrees of toes at different times after inflammation, 2 h” value in assay [2] (2 h) worked out at 164.17. Further, the “Swelling degrees of toes at different times after inflammation, 4 h” value in assay [2] (4 h) is 157.17. Also, the “exudated amount of evans blue (EB)” value in assay [3] came out at 36.98 ± 2.74 µg/g. Moreover, in the assay with mouse tampon granuloma, the “wet weight of granuloma” value came out at 217.11. Further, the “Net weight of granuloma” value in the assay on mouse tampon granuloma (dried weight minus original weight of tampon) is listed as 13.03 mg.

These data come from patent publication US20180085416A1, “TRADITIONAL CHINESE MEDICINE COMPOSITION AND PREPARATION METHOD AND USE THEREOF” (INFINITUS (CHINA) COMPANY LTD., priority 2016, published 2018).
